The target in one experiment is T1, VP16-Mediator binding (Homo sapiens, UniProt Q71SY5+Q9NVC6).
T1 construct: endogenous in cells
Kind of experiment: In vitro binding assay, VP16AD-Mediator. The note with it: bivalent peptide 5 μM.

The test system of a further experiment is HCT116 cells. Description: RNA-Seq in HCT116 cells, non-p53 genes / genome-wide transcription. Conditions: DMSO control cells, no Nutlin. Type of experiment: cell-based, human. From the text:
An expectation of our experimental strategy was that the bivalent peptide, which was designed based upon p53AD structure, would selectively block p53 function. […] RNA-Seq experiments in HCT116 cells represented a more rigorous test for selectivity. HCT116 cells express hundreds of sequence-specific, DNA-binding TFs, including high level expression of TFs that define the cell lineage. For HCT116 cells, these TFs include SREBF1, ELF3, JUNB, NR2F1, and MYC. To assess the general impact of the bivalent peptide on pol II transcription, we compared RNA-Seq data from DMSO control cells (i.e. no Nutlin treatment) in the presence/absence of bivalent peptide.
Electroporation of bivalent peptide into HCT116 cells (RNA-Seq experiment 1): Two 6-well plates (HCT116 cells) were grown to about 80% confluency. Cells were then trypsinized, washed with PBS, and resuspended in 150 μL Neon Buffer R. The cells were then split into two groups: No peptide and 10 μM peptide. The cells were then drawn into a 10 μL Neon pipet tip, electroporated and ejected into 2 mL of McCoy's 5A media without antibiotic. For each experiment, two cell electroporation aliquots were added to media containing either 0.1% DMSO (control) or 10 μM Nutlin-3a (in DMSO, to a final concentration of 0.1%). […]

Molecules are shown by their SMILES. Bridge positions count the residues as written; N and C are the ends. Square brackets hold non-standard residues; d marks the D form. Peptide text beside a SMILES is read from it. PEG6 = NCCOCCOCCOCCOCCOCCOCCC(=O)O; R8 = C=CCCCCCC[C@@](C)(N)C(=O)O; S5 = C=CCCC[C@](C)(N)C(=O)O

For `CC[C@H](C)[C@H](NC(=O)[C@H](CC(=O)O)NC(=O)[C@H](CC(=O)O)NC(=O)[C@@H]1CCCN1C(=O)[C@H](CO)NC(=O)[C@H](CC(C)C)NC(=O)CCOCCOCCOCCOCCOCCOCCNC(=O)[C@H](CCCNC(=N)N)NC(=O)[C@H](CCCNC(=N)N)NC(=O)[C@]1(C)CCCC=CCCCCCC[C@@](C)(NC(=O)[C@H](Cc2ccccc2)NC(=O)[C@H](CCCNC(=N)N)NC(=O)[C@H](CCC(=O)O)NC(=O)[C@H](CCC(N)=O)NC(=O)[C@H](CO)NC(=O)[C@H](CCCNC(=N)N)NC(C)=O)C(=O)N[C@@H](CC(=O)O)C(=O)N[C@@H](CC(C)C)C(=O)N[C@@H](Cc2c[nH]c3ccccc23)C(=O)N[C@@H](CCCCN)C(=O)N[C@@H](CCCNC(=N)N)C(=O)N[C@@H](CC(C)C)C(=O)N1)C(=O)N[C@@H](CCC(=O)O)C(=O)N[C@@H](CCC(N)=O)C(=O)N[C@@H](Cc1c[nH]c2ccccc12)C(=O)N[C@@H](Cc1ccccc1)C(=O)N[C@H](C(=O)N[C@@H](CCC(=O)O)C(=O)N[C@@H](CC(=O)O)C(N)=O)[C@@H](C)O` [bivalent peptide] (Ac-RSQERF[R8]DLWKRL[S5]RR[PEG6]LSPDDIEQWFTED-NH2; staple 7-14; N-terminus assumed), the “effect on VP16AD binding to Mediator” value at VP16-Mediator binding is reported as “did not reduce VP16AD binding to Mediator”. Besides, the “increase in Mediator-bound VP16 in +peptide experiments (GST-VP16 normalized to MED15)” value at VP16-Mediator binding (n=2) amounted to 1.67 fold. Besides, in the experiment on HCT116 cells, the “effect on pol II transcription genome-wide” value was “minor effect on pol II transcription”.

(Values after patent US20220064238A1, “Methods And Compositions For Modifying Transcription Factor Activity by Targeting The Human Mediator Complex Using Cell Penetrating Memetic Peptides And Methods of Treating Cancer Using The Same” (The Regents of the University of Colorado, a body corporate, priority 2020, published 2022).)
